These results are taken from patent US8404696B2, “Quinazoline-2,4-dione derivative, and medical compositions for the prophylaxis and treatment of cranial nerve disease containing the same” (Shin Poong Pharmaceutical Co., Ltd., priority 2008, dated 2013).

Converted amounts (≈) assume the structure as drawn.

One test has as its system mouse brain cells. The test can be described thus: Inhibitory effect on ROS production in brain cells (DCF-DA, NMDA-induced). Type of test: cell-based. The note with it: 24 h; dose suppressing 50% of production of reactive oxygen compared to control; mouse brain cells; read-out: ROS inhibitory effect ID50. As to the method: Oxidative stress was measured to test inhibitory effects on the production of reactive oxygen species (ROS) by using DCF-DA, which is a fluorescent probe. Brain cells were obtained from brain cortex of mouse to prepare cell solution with 2×10^6 cells/ml. Each brain cell was treated with 11 μM of DCF-DA followed by reaction in 37° C., 5% CO2 incubator for an hour. After washing twice, Compound 3 was treated with a concentration of 125 μg/ml and 250 μg/ml. At the same time, 300 μM of NMDA was treated and it was incubated in 37° C., 5% CO2 incubator for 24 hours.
(§1) ROS inhibitory effect of compounds was represented to the dose suppressing 50% of production of reactive oxygen compared to control. […] The activity of superoxide dismutase (SOD) was measured by using a kit acquired in Sigma.

For test [1], the system named is pentylentetrazole (PTZ)-induced convulsion. Kind of test: Anti-convulsant effect, pentylentetrazole (PTZ) test. It counts as in vivo. Conditions: 10 mg/kg intraperitoneally, PTZ 80 mg/kg subcutaneously; for mortality rate / Induction percentage of convulsion: (animals/total); for mortality rate: negative control 70(17/23); for Induction percentage of convulsion: negative control 100(23/23); for Initiation time of convulsion: negative control 5.0 ± 0.7; for Duration of convulsion: negative control 46.7 ± 3.3. The procedure:
An experiment was performed by the method of Ali et al. (Ali, A. et al. 2006, Pharmacological Reports, 58: 242-245). A 10 mg/kg dose of compound was intraperitoneally administered to identify the anti-convulsant effect and the effect was observed (Table 8). Researching the process of activity was performed by the Anti-epileptic Drug Development Program (ADD) of NIH during development of the anti-convulsant drug. One of the assessed items of anti-convulsant activity in the first step of this program is the pentylentetrazole (PTZ) test. […] After 10 mg/kg of the testing drug was administered, assessment was performed by estimating the initiation time of convulsion, duration until convulsion completely disappeared and mortality rate. It was assessed as having an anti-convulsant effect when a single episode of clonic spasm was not shown over 5 seconds on at least one of the 4 laboratory animals after PTZ administration.

The subject of a further test is thoracic aorta of rats. Kind of test: Relaxing effect on thoracic aorta contracted by phenylephrine (organ bath). Set-up: species or system rats of SD species. The note with it: Rattus norvegicus; 67 μg/mL; phenylephrine 0.5 μM; mean n = 3; read-out: Relaxation percentage. An excerpt: After male rats of SD species (250-300 g) were anesthetized by inhalation of ether, their thoracic aortas were extracted and put into a Krebs buffer (mM; NaCl 118, NaHCO3 27.3, KCl 4.8, MgSO4 1.2, KH2PO4 1.0, CaCl2 1.25, glucose 11.1). 2 mm of aortic ring was made under dissecting microscope and cultured in an organ bath to measure the tension of blood vessels. The organ bath was filled with Krebs buffer and saturated with 95% O2, 5% CO2 to maintain dissolved oxygen and physiological pH. Changing of tension was measured by a tension meter (Hugo-sachs, model K30) and recorded by physiological recorder (Coulbourn polygraph). The length of the blood vessels was increased step by step to make 1.0 g of basal tension for 90 minutes. The equilibrated blood vessel was contracted by phenylephrine (0.5 μM). When the contraction furrow reached equilibrium, compounds were added, followed by observation of relaxation response.

Test [2] relates to mixed culture of nerve cells-glial cells. The test can be described thus: Protecting effect on NMDA-induced nerve cell death (LDH release). It counts as cell-based, ICR mouse. Conditions: 100 μM NMDA, LDH release after 24 hours. As to the method:
Isolation and culture of nerve cells were performed by Choi's method (Choi, D. W. 1985, Neurosci. Lett., 58: 293-297). That is, the cortex was isolated in fetus ICR mouse that was 14 days pregnant, and then single cells were obtained from the tissue using pipette. The cells were aliquoted into 2×10^5/well density in a 24-well plate (Falcon) in which glial cells of cerebral cortex had been cultured in an incubator maintained at 37° C. with 5% CO2 for over 3 weeks. The culture medium was supplemented with MEM (minimum essential medium, Sigma), 2 mM glutamine, 21 mM glucose, 26.5 mM bicarbonate, 10% fetal bovine serum (FBS). In 3-5 days after aliquot, 10 μM Ara-C (cytosine arabinoside) was treated to suppress proliferation of neuroglia. And it was treated with 100 μM NMDA and 1 μg/mL or 2 μg/mL of each sample (compound) to induce the death of nerve cells due to excitable toxicity for 20 minutes, in 12-15 days after aliquot. Because of nerve cell death, lactate dehydrogenase (LDH) accumulated in proportion to the number of dead cells. In 24 hours after drug treatment, the amount of dehydrogenase (LDH) released to outside of cells was measured by using an […] measurement kit (CytoTox 96, Promega). After the reaction was completed, the change of absorbance depending on the amount of LDH was measured by using a microplate spectrophotometer.
On the technique in general: LDH leaks from cells whose membrane has failed.

The subject of test [3] is superoxide dismutase (SOD). The test can be described thus: Increase of superoxide dismutase (SOD) activity in mouse brain cells. It counts as cell-based. The note with it: 100 μg/ml. The procedure: as §1

Take `O=c1[nH]c2ccccc2c(=O)n1CCCCNCCCn1c(=O)[nH]c2ccccc2c1=O` [Compound 7, 3-{4-[3-(2,4-dioxo-1,4-dihydro-2H-quinazolin-3-yl)propylamino]butyl}-1H-quinazoline-2,4-dione]: the IC50 in the test on mouse brain cells turned out to be 17.7 ± 17.3 µg/mL (≈ 40.6 µM). For the same compound, in test [1], the mortality rate was 67(4/6) %, the “Induction percentage of convulsion” value was 100(6/6) %, the “Initiation time of convulsion” value is 3.1 ± 0.3 min and the Duration of convulsion is 42.9 ± 8.7 min. In the test on thoracic aorta of rats, the inhibition at 67 µg/mL was 56.8%. The “Inhibitory effect of cell death by NMDA-induced excitable neurotoxicity” value (from here on “Inhibitory effect of cell death”) in test [2] (1 μg/ml compound) is 26.0%. The “Inhibitory effect of cell death” value in test [2] (2 μg/ml compound) was 39.7%.

Take `CCOC(=O)N(CCCCN(CCCn1c(=O)[nH]c2ccccc2c1=O)C(=O)OCC)CCCn1c(=O)[nH]c2ccccc2c1=O` [Compound 16, [3-(2,4-dioxo-1,4-dihydro-2H-quinazolin-3-yl)propyl]-(4-{[3-(2,4-dioxo-1,4-dihydro-2H-quinazolin-3-yl)propyl]ethoxycarbonylamino}butyl)carbamic Acid ethyl ester]: the “Increase of SOD activity, compared to control” value (“Increase of SOD activity” for short) in test [3] is reported as 7.5 ± 2.3. In test [1], the mortality rate is 0(0/6) %, the “Induction percentage of convulsion” value was 100(6/6) %, the “Initiation time of convulsion” value was determined as 7.6 ± 1.7 min and the Duration of convulsion is 6.4 ± 2.3 min. In addition, the “Inhibitory effect of cell death” value in test [2] (1 μg/ml compound) was determined as 18.1%.

For `O=C(N(CCCCNCCCn1c(=O)[nH]c2ccccc2c1=O)CCCn1c(=O)[nH]c2ccccc2c1=O)C(F)(F)F` [Compound 36, N-[3-(2,4-dioxo-1,4-dihydro-2H-quinazolin-3-yl)propyl]-N-{4-[3-(2,4-dioxo-1,4-dihydro-2H-quinazolin-3-yl)propylamino]butyl}-2,2,2-trifluoroacetamide], in test [3], the “Increase of SOD activity” value worked out at 4.9 ± 1.2. In test [1], the mortality rate is recorded as 33(2/6) %, the “Induction percentage of convulsion” value was 100(6/6) %, the “Initiation time of convulsion” value was 8.9 ± 2.3 min and the Duration of convulsion was 25.1 ± 9.7 min. Besides, in test [2] (1 μg/ml compound), the “Inhibitory effect of cell death” value is recorded as 32.2%. Also, in test [2] (2 μg/ml compound), the “Inhibitory effect of cell death” value is on record as 18.4%.

As to `Cn1c(=O)n(CCCN(CCCCN(CCCn2c(=O)c3ccccc3n(C)c2=O)C(=O)OC(C)(C)C)C(=O)OC(C)(C)C)c(=O)c2ccccc21` [Compound 26, (4-{tert-butoxycarbonyl-[3-(1-methyl-2,4-dioxo-1,4-dihydro-2H-quinazolin-3-yl)propyl]amino}butyl)-[3-(1-methyl-2,4-dioxo-1,4-dihydro-2H-quinazolin-3-yl)propyl]carbamic acid tert-butyl ester], the “Increase of SOD activity” value in test [3] is 0.7 ± 5.7. In test [1], the mortality rate is on record as 50(3/6) %, the “Induction percentage of convulsion” value was 83(5/6) %, the “Initiation time of convulsion” value was 15.4 ± 9.0 min and the Duration of convulsion stood at 33.0 ± 9.5 min. In addition, in the test on thoracic aorta of rats, the inhibition at 67 µg/mL came out at 3.7%. The “Inhibitory effect of cell death” value in test [2] (1 μg/ml compound) is recorded as 8.8%. Besides, in test [2] (2 μg/ml compound), the “Inhibitory effect of cell death” value turned out to be 29.7%.

Consider `CC(C)(C)OC(=O)N(CCCCNCCCn1c(=O)[nH]c2ccccc2c1=O)CCCn1c(=O)[nH]c2ccccc2c1=O` [Compound 11, [3-(2,4-dioxo-1,4-dihydro-2H-quinazolin-3-yl)propyl]-{4-[3-(2,4-dioxo-1,4-dihydro-2H-quinazolin-3-yl)propylamino]butyl}carbamic Acid tert-butyl ester], for which, in test [3], the “Increase of SOD activity” value was determined as 2.3 ± 3.4. Also, in test [1], the mortality rate is 17(1/6) %, the “Induction percentage of convulsion” value is on record as 100(6/6) %, the “Initiation time of convulsion” value came out at 10.1 ± 4.9 min and the Duration of convulsion was determined as 44.9 ± 5.8 min. Further, the inhibition at 67 µg/mL in the test with thoracic aorta of rats is 10.9%. Further, in test [2] (1 μg/ml compound), the “Inhibitory effect of cell death” value is given as 15.0%.

`CC(C)(C)OC(=O)N(CCCCN(CCCn1c(=O)[nH]c2ccccc2c1=O)C(=O)OC(C)(C)C)CCCn1c(=O)[nH]c2ccccc2c1=O` [Compound 17, (4-{tert-butoxycarbonyl-[3-(2,4-dioxo-1,4-dihydro-2H-quinazolin-3-yl)propyl]amino}butyl)-[3-(2,4-dioxo-1,4-dihydro-2H-quinazolin-3-yl)propyl]carbamic acid tert-butyl ester]: in test [3], the “Increase of SOD activity” value is reported as 0.3 ± 0.0. Besides, the inhibition at 67 µg/mL in the test on thoracic aorta of rats amounted to 51.7%. Besides, the “Inhibitory effect of cell death” value in test [2] (1 μg/ml compound) amounted to 21.0%; in test [2] (2 μg/ml compound), 10.7%.

Turning to `O=C(NCCCNCCCCNCCCn1c(=O)[nH]c2ccccc2c1=O)c1ccc(O)cc1` [Compound 8, N-(3-{4-[3-(2,4-dioxo-1,4-dihydro-2H-quinazolin-3-yl)propylamino]butylamino}propyl)-4-hydroxybenzamide], the IC50 with mouse brain cells was found to be 103 ± 20.4 µg/mL (≈ 220 µM). Also, the inhibition at 67 µg/mL in the test with thoracic aorta of rats worked out at 35.7%. The “Inhibitory effect of cell death” value in test [2] (1 μg/ml compound) came to 20.0%; in test [2] (2 μg/ml compound), 28.2%.

`CC(=O)N(CCCCN(CCCn1c(=O)[nH]c2ccccc2c1=O)C(C)=O)CCCNC(=O)c1ccc(O)cc1` [Compound 21, N-{3-[acetyl-(4-{acetyl-[3-(2,4-dioxo-1,4-dihydro-2H-quinazolin-3-yl)propyl]amino}butyl)amino]propyl}-4-hydroxybenzamide]: in test [3], the “Increase of SOD activity” value is given as −0.3 ± 3.7. In addition, in test [1], the mortality rate is given as 0(0/6) %, the “Induction percentage of convulsion” value is on record as 67(4/6) %, the “Initiation time of convulsion” value is on record as 22.2 ± 11.9 min and the Duration of convulsion turned out to be 6.7 ± 3.1 min. In addition, the inhibition at 67 µg/mL with thoracic aorta of rats turned out to be 2.6%. For the same compound, the “Inhibitory effect of cell death” value in test [2] (1 μg/ml compound) came to 19.6%. For the same compound, in test [2] (2 μg/ml compound), the “Inhibitory effect of cell death” value is reported as 16.6%.

“3-[3-(4-{N-[3-(2,4-dioxo-1,4-dihydro-2H-quinazolin-3-yl)propyl]-N-benzylamino}butyl)-N-benzylamino]propyl-1H-quinazoline-2,4-dione [Compound 15]”: in test [3], the “Increase of SOD activity” value came out at 1.3 ± 3.1. In addition, in test [1], the mortality rate is recorded as 83(5/6) %, the “Induction percentage of convulsion” value was 83(5/6) %, the “Initiation time of convulsion” value amounted to 25.7 ± 7.2 min and the Duration of convulsion amounted to 34.3 ± 7.2 min. The “Inhibitory effect of cell death” value in test [2] (1 μg/ml compound) is 22.4%. Further, the “Inhibitory effect of cell death” value in test [2] (2 μg/ml compound) is listed as 22.3%.
